Results from PMC8876511, “Two out of Three Musketeers Fight against Cancer: Synthesis, Physicochemical, and Biological Properties of Phosphino Cu^I, Ru^II, Ir^III Complexes” (Pharmaceuticals, 2022).

Key:
Solubility (qualitative) = format: physicochemical
HaCaT cells [1] = experiment: MTT cytotoxicity assay, HaCaT (non-cancer); format: cell-based, human; conditions: 48 h
HaCaT cells [2] = experiment: MTT cytotoxicity assay, HaCaT (non-cancer); format: cell-based, human
Procedure: (§1) Moreover, to investigate the activity of synthesized complexes as potential anticancer agents, their cytotoxicity toward a series of human cancer cell lines and a non-cancer cell line (HaCaT) was evaluated using the MTT assay. […] In addition, we also determined the cytotoxic activity of free ligands toward selected cancer cells. […] However, this effect depends on the cell line. […] The best values of cytotoxic activity of compounds have been obtained after 72 h of cell incubation. Additionally, synthesized complexes had high sensitivity to A549 cells, so this cell line was selected as the research subject for antitumor activity.
(§2) MCF7 cell line (human breast adenocarcinoma, morphology: epithelial-like, ATCC: HTB-22) and A549 cell line (human lung adenocarcinoma, morphology: epithelial, ATCC: CCL-185); HaCaT (human keratinocyte) were cultured in Dulbecco’s Modified Eagle’s Medium (DMEM, Corning, Poland) with phenol red, supplemented with 10% fetal bovine serum (FBS) and with 1% streptomycin/penicillin. Du-145 cell line (human prostate carcinoma); derived from metastatic site: brain was cultured in minimum essential medium (MEM, Corning) with only 10% fetal bovine serum (FBS). Cultures were incubated at 37 °C under a humidified atmosphere containing 5% CO2. Cells were passaged using a solution containing 0.05% trypsin and 0.5 mM EDTA. All media and other ingredients were purchased from ALAB, Poland.
(§3) Since most of the studied compounds are insoluble in aqueous media (Dulbecco’s Modified Eagle’s Medium or minimum essential medium (MEM, Corning), therefore, they needed to be pre-dissolved in DMSO for biological tests. DMSO concentration was kept below 1% in each tested concentration of each compound. Cytotoxicity was assessed by MTT assay performed according to the protocols described previously in the following experimental approaches: 6 h + 24 h, 24 h + 24 h, and 72 h + 24 h. In brief, 5×10^3 per well (0.2 mL) in the two first approaches, while 1×10^4 cells in the case of longer incubation time were seeded in 96-well flat-bottom microtiter plate, were incubated with the tested complexes at various ranges of concentrations. After an appropriate incubation time of 6, 24, or 72 h, the cells were washed thee time with PBS and fresh medium was applied for a further 24 h in each approach. Various compound concentrations (dilutions in proper medium supplemented with 1% FBS) were tested in five replicates and repeated at least three times. Determined values of IC50 (concentration of a drug required to inhibit the growth of 50% of the cells) are given as mean + S.D. (Standard Deviation). IC50 values were determined, from the plots of cell viability in the presence of various concentrations of each compound by matching dose–response curves and using the Origin 9.0 software. Furthermore, post-treatment survival assessment of the treated cells was analyzed under an inverted fluorescence microscope (Olympus IC51, Japan) with an excitation filter 470/20 nm. For this, cells were stained with two versatile fluorescence dyes: fluorescein diacetate (FDA, 5 mg/mL) and propidium iodide (PI, 5 mg/mL) in standard conditions in the dark for 20 min. Before visualization, dyes were removed and cells were washed with PBS twice.

Du-145 cells = experiment: MTT cytotoxicity assay, Du-145; format: cell-based, human
Procedure: as §1, §2
as §3, with “Cytotoxicity was assessed by MTT assay performed according to the protocols described previously in the following experimental approaches: 6 h + 24 h, 24 h + 24 h, and 72 h + 24 h.” left out, “After an appropriate incubation time of 6, 24, or 72 h, the cells were washed thee time with PBS and fresh medium was applied for a further 24 h in each approach.” left out

A549 cells [3] = experiment: MTT cytotoxicity assay, A549; format: cell-based, human
PANC-1 cells [4] = experiment: MTT cytotoxicity assay, PANC-1; format: cell-based, human
[5] = Partition coefficient, shake-flask method (n-octanol/PBS); format: physicochemical
Procedure: The partition coefficient was determined by the shake-flask method. A small amount of compound was dissolved in 5 mL PBS-saturated n-octanol. The sample was sonicated until all the compound was dissolved. Next, 5 mL of PBS saturated with n-octanol was added and the experiment proceeded as before. The resulting mixture was vortexed for 30 min in horizontal position. The sample was centrifuged for 2 min at 3700 rpm to obtain a phase separation. Next, 2 mL of each phase was taken. The next steps were a 5 min sonication and measurement of absorption spectra of the obtained solutions. The calibration curve was prepared in order to determine the concentration of the tested compounds in individual solutions. It was made using the absorption intensity of the compounds in series dilution solutions in PBS saturated with octanol or octanol saturated with PBS in the concentration range c = 1–100 nM.

MCF-7 cells = experiment: MTT cytotoxicity assay, MCF-7; format: cell-based, human
Procedure: as §1, §2
as §3, with “Cytotoxicity was assessed by MTT assay performed according to the protocols described previously in the following experimental approaches: 6 h + 24 h, 24 h + 24 h, and 72 h + 24 h.” left out, “After an appropriate incubation time of 6, 24, or 72 h, the cells were washed thee time with PBS and fresh medium was applied for a further 24 h in each approach.” left out

A549 cells [6] = experiment: MTT cytotoxicity assay, A549; format: cell-based, human; remark: listed apart in the source
Procedure: as §1, §2, §3

PANC-1 cells [7] = experiment: MTT cytotoxicity assay, PANC-1; format: cell-based, human; remark: listed apart in the source
Procedure: as §1, §3

[8] = Stability towards atmospheric oxygen (UV-Vis); format: physicochemical
Procedure: Oxidation of copper(I) to copper(II) was observed within 12 h using UV-Vis spectroscopy (Figure 1) that was additionally conformed by color of the copper(I) inorganic compound solution changing from transparent to green. Additionally, oxidation of phosphines ligands (1, 2) was observed. It is worth mentioning that copper(I) ions can easily undergo oxidation processes. The instability of copper(I) complexes prevented us from evaluating their biological activity.

Compound	solubility in mixture of H2O:DMSO (100:1) (Solubility (qualitative))	IC50 (HaCaT cells [1])	IC50 (HaCaT cells [2]; 24 h)	IC50 (HaCaT cells [2]; 72 h)	IC50 (Du-145 cells; 24 h)	IC50 (Du-145 cells; 48 h)	IC50 (Du-145 cells; 72 h)	IC50 (A549 cells [3]; 48 h)	IC50 (PANC-1 cells [4]; 48 h)	IC50 (MCF-7 cells; 24 h)	IC50 (MCF-7 cells; 48 h)	IC50 (MCF-7 cells; 72 h)	IC50 (A549 cells [6]; 24 h)	IC50 (A549 cells [6]; 72 h)	IC50 (PANC-1 cells [7]; 24 h)	IC50 (PANC-1 cells [7]; 72 h)	IC50 (HaCaT cells [1]; Homo sapiens, HaCaT)	IC50 (HaCaT cells [2]; Homo sapiens, HaCaT, 72 h)	IC50 (Du-145 cells; Homo sapiens, DU-145, 72 h)	IC50 (A549 cells [3]; Homo sapiens, A549, 48 h)	also measured
CC#N.CC#N.CCN(CC)CP(c1ccccc1)c1ccccc1.CCN(CC)CP(c1ccccc1)c1ccccc1.F[B-](F)(F)F.[Cu+] [1c, [Cu(NCCH3)2(Ph2PCH2N(CH2CH3)2)2]^+BF4^−]	well soluble	–	–	–	–	–	–	–	–	–	–	–	–	–	–	–	–	–	–	–	–
CCCCN(CCCC)C[P+](c1ccccc1)(c1ccccc1)[Ir-3]([Cl])([Cl])[C]1(C)C(C)=C(C)C(C)=C1C [2a, Ir(η^5-Cp*)Cl2Ph2PCH2N(CH2CH2CH2CH3)2]	–	420 ± 12 µM	559 ± 25 µM	302 ± 22 µM	69 ± 6 µM	69 ± 8 µM	13 ± 2 µM	61 ± 3 µM	198 ± 20 µM	125 ± 15 µM	189 ± 20 µM	56 ± 6 µM	79 ± 6 µM	16 ± 3 µM	106 ± 5 µM	85 ± 16 µM	–	–	–	–	Experimental LogP (logPo/w) [5]: 4.0
CC#N.CC#N.CCCCN(CCCC)CP(c1ccccc1)c1ccccc1.CCCCN(CCCC)CP(c1ccccc1)c1ccccc1.F[B-](F)(F)F.[Cu+] [2c, [Cu(NCCH3)2(Ph2PCH2N(CH2CH2CH2CH3)2)2]^+BF4^−]	well soluble	–	–	–	–	–	–	–	–	–	–	–	–	–	–	–	–	–	–	–	–
N.N.[Cl][Pt][Cl] [Cisplatin, reference compound]	–	362 ± 4 µM	400 ± 3 µM	102 ± 2 µM	85 ± 7 µM	81 ± 8 µM	50 ± 2 µM	66 ± 9 µM	131 ± 7 µM	176 ± 5 µM	151 ± 6 µM	64 ± 4 µM	70 ± 8 µM	11 ± 3 µM	166 ± 20 µM	79 ± 5 µM	–	–	–	–	–
CCN(CC)CP(c1ccccc1)c1ccccc1 [compound 1, Ph2PCH2N(CH2CH3)2]	–	–	–	–	–	–	–	–	–	–	–	–	–	–	–	–	458 ± 20 µM	490 ± 12 µM	86 ± 6 µM	47 ± 5 µM	IC50 (HaCaT cells [2]; Homo sapiens, HaCaT, 24 h): 646 ± 20 µM; IC50 (Du-145 cells; Homo sapiens, DU-145, 24 h): 203 ± 19 µM; sensitivity to oxidation in solution [8]: extremely sensitive to oxidation in solution; solubility in H2O (Solubility (qualitative)): moderately; IC50 (MCF-7 cells; Homo sapiens, MCF7, 24 h): 458 ± 11 µM; IC50 (MCF-7 cells; Homo sapiens, MCF7, 48 h): 149 ± 13 µM; IC50 (MCF-7 cells; Homo sapiens, MCF7, 72 h): 192 ± 20 µM; IC50 (A549 cells [6]; Homo sapiens, A549, 24 h): 620 ± 9 µM; IC50 (A549 cells [6]; Homo sapiens, A549, 72 h): 183 ± 12 µM; IC50 (PANC-1 cells [7]; Homo sapiens, PANC-1, 24 h): 426 ± 7 µM; IC50 (PANC-1 cells [7]; Homo sapiens, PANC-1, 72 h): 185 ± 12 µM
CCCCN(CCCC)CP(c1ccccc1)c1ccccc1 [compound 2, Ph2PCH2N(CH2CH2CH2CH3)2]	–	–	–	–	–	–	–	–	–	–	–	–	–	–	–	–	420 ± 11 µM	448 ± 25 µM	57 ± 4 µM	72 ± 6 µM	IC50 (HaCaT cells [2]; Homo sapiens, HaCaT, 24 h): 556 ± 13 µM; IC50 (Du-145 cells; Homo sapiens, DU-145, 24 h): 185 ± 12 µM; IC50 (Du-145 cells; Homo sapiens, DU-145, 48 h): 54 ± 8 µM; sensitivity to oxidation in solution [8]: extremely sensitive to oxidation in solution; IC50 (PANC-1 cells [4]; Homo sapiens, PANC-1, 48 h): 158 ± 23 µM; solubility in H2O (Solubility (qualitative)): moderately; IC50 (MCF-7 cells; Homo sapiens, MCF7, 24 h): 355 ± 13 µM; IC50 (MCF-7 cells; Homo sapiens, MCF7, 48 h): 125 ± 20 µM; IC50 (MCF-7 cells; Homo sapiens, MCF7, 72 h): 285 ± 11 µM; IC50 (A549 cells [6]; Homo sapiens, A549, 24 h): 569 ± 11 µM; IC50 (A549 cells [6]; Homo sapiens, A549, 72 h): 158 ± 11 µM; IC50 (PANC-1 cells [7]; Homo sapiens, PANC-1, 24 h): 386 ± 6 µM; IC50 (PANC-1 cells [7]; Homo sapiens, PANC-1, 72 h): 142 ± 20 µM
CCCCNCCCC [dibutylamine]	–	–	–	–	–	–	–	–	–	–	–	–	–	–	–	–	445 ± 25 µM	> 1000 µM	> 1000 µM	387 ± 25 µM	IC50 (Du-145 cells; Homo sapiens, DU-145, 48 h): 103 ± 7 µM; IC50 (PANC-1 cells [4]; Homo sapiens, PANC-1, 48 h): 258 ± 6 µM; IC50 (MCF-7 cells; Homo sapiens, MCF7, 48 h): 226 ± 20 µM; IC50 (MCF-7 cells; Homo sapiens, MCF7, 72 h): > 1000 µM; IC50 (A549 cells [6]; Homo sapiens, A549, 72 h): > 1000 µM; IC50 (PANC-1 cells [7]; Homo sapiens, PANC-1, 72 h): > 1000 µM
CCNCC [diethylamine]	–	545 ± 33 µM	–	> 1000 µM	–	126 ± 12 µM	> 1000 µM	425 ± 38 µM	305 ± 13 µM	–	352 ± 25 µM	> 1000 µM	–	> 1000 µM	–	> 1000 µM	–	–	–	–	–
Ru(η^6-p-cymene)Cl2Ph2PCH2N(CH2CH2CH2CH3)2 [2b]	well soluble	445 ± 25 µM	545 ± 13 µM	347 ± 25 µM	102 ± 6 µM	103 ± 7 µM	17 ± 3 µM	387 ± 25 µM	258 ± 6 µM	226 ± 20 µM	226 ± 20 µM	121 ± 20 µM	81 ± 4 µM	14 ± 2 µM	126 ± 6 µM	112 ± 18 µM	–	–	–	–	Experimental LogP (logPo/w) [5]: 3.84
